Reference: patent US20080146540A1, “Methods of diagnosis and treatment for asthma, allergic rhinitis and other respiratory diseases based on haplotype association” (priority 2003, published 2008)

Tests used:
[1] = tested on: asthma patients; experiment: Phase II clinical study CEP-1347-201: asthma exacerbations and airway remodeling; format: in vivo, human
Excerpt: However, given the near normal lung function of the population evaluated in this exploratory Phase 2 trial, positive trends can only be established with respect to the effects of CEP-1347 in asthma due to lack of statistical significance in certain aspects of the study. Furthermore, the trial patient numbers for at-risk haplotype carriers were not large enough to achieve significant power to adequately test the effect on these haplotype positive patients. The asthma patients enrolled into CEP-1347-201 were well treated with near normal lung function and any apparent lack of treatment effect could be attributed, in part, to deficiencies in study design as opposed to a lack of CEP-1347 effect.
The term “airway remodeling” in bronchial asthma refers to structural changes that occur in conjunction with, or because of, chronic airway inflammation. Airway remodeling results in alterations in the airway epithelium, lamina propria, and submucosa, leading to thickening of the airway wall. Another common attribute of asthmatic airways is eosinophilia. Eosinophils expressing the CCR3 chemokine receptor are drawn from pulmonary circulation primarily by Eotaxin/CCL11, which is overexpressed in asthmatic respiratory membrane epithelial cells, fibroblasts, and smooth muscle cells. […]

[2] = tested on: asthma patients; experiment: Phase II clinical study CEP-1347-201: peak expiratory flow rate (PEFR; ANCOVA at week 8 and longitudinal model of daily PEFR); format: in vivo, human; conditions: for PEFR Change from Baseline at Week 8, LS Mean: ANCOVA; for Mean model predicted PEFR adjusted for baseline percent predicted PEFR, mean: morning PEFR
Excerpt: Two analyses of PEFR were pre-specified in the SAP, an ANCOVA analysis of the change from baseline at week 8 and a model based longitudinal analysis of the daily PEFR measurements. Results from an ANCOVA (analysis of covariance) including treatment group as a factor and the baseline value as a covariate are presented in Table 19. The ANCOVA results reported in Table 19 were limited to change from baseline at week 8 PEFR measurements from office based spirometry assessments. Patients were also instructed to perform peak flow rate assessments at home, once in the morning and once in the evening using a hand-held peak flow device. PEFR measures were then recorded by the patient into a diary. A total of 6878 morning (5 am-12 noon) observations were collected from 149 patients during the treatment phase of the study (56 days in duration) corresponding to approximately 46.2 observations per subject. […] The endpoint used in this analysis was change from baseline in morning PEFR. While the model based analysis can be difficult to understand, this approach takes advantage of the rich daily PEFR data set (6878 observations) whereas the ANCOVA was limited to the week 8 PEFR (146 observations). The model included a placebo and treatment component. […] This common phenomenon is typically referred to as “regression to the mean”. In addition, the onset of this placebo effect appeared to occur over time. Therefore, a rate constant was added to the model to account for the change in placebo effect over time. […] Placeboss=θ(1)+η(1)+θ(9)*baseline % predicted PEFR (Eq. 3) Placebot=Placeboss*(1-exp(-θ(5)*DAY)) (Eq. 4) […] To allow for a less than immediate CEP-1347 effect, a rate constant controlling the onset of treatment effect was also included in the treatment model. In addition, it was assumed that the ability of a patient to responds to drug treatment was proportional to the patients baseline % predicted PEFR. In other words, patients with normal lung function at baseline would be expected to have little effect whereas those with poor lung function at baseline would be expected to have a larger effect. This model component is similar to a treatment by baseline interaction in an ANCOVA analysis. Equation describes the treatment time course model: […]=θ(n)*ROOM*(1-(-exp(-θ(10)*DAY)) (Eq. 5) Where, […] the treatment effect at time t adjusted for the patient's baseline % predicted PEFR and duration of drug therapy, θ(n) is the fixed effect associated with n treatment group; either 10, 25, or 50 mgBID treatment groups, ROOM scales the magnitude of the treatment effect based on the baseline % predicted PEFR (i.e., 1-baseline predicted; baseline by treatment interaction), θ(10) is the rate constant governing the onset of treatment effect. The overall effect at time t combines the placebo component and the drug component (Equation 6): […]=Placebot+Treatment1+ε(1) (Eq. 6) […] Model selection was done in the same manner as described for the MCT analysis. In addition, a randomization test was undertaken to more accurately determine the p value comparing the full model (run #14 included a treatment component) to the reduced model (run #5; placebo model only). […] The 5th and 95th percentiles for the predicted values were identified from the pool of predicted values to establish a 90% prediction interval around the mean model prediction (Table 21).

[3] = tested on: MMP-9; experiment: Phase II clinical study CEP-1347-201: MMP-9 change from baseline; format: in vivo, human; conditions: for MMP-9 Change from Baseline at Week 8, LS Mean: ANCOVA
Excerpt: Matrix metalloproteinases (MMPs) are members of a family of proteolytic enzymes that degrade the extracellular matrix and […] tissue inhibitors (TIMPs). Up regulation of MMP-9 results in subepithelial collagen deposition and airway remodeling leading to irreversible airways obstruction in asthma patients. Airway remodeling has and continues to be a research goal of anti-asthma therapies. […] The change in the […] reached statistical significance and the comparison of the pooled CEP-1347 groups versus placebo approached statistical significance (p=0.06).

[4] = tested on: mice; conditions: cited from earlier work

## CCSCc1ccc2c(c1)c1c3c(c4c5cc(CSCC)ccc5n5c4c1n2C1CC(O)(C(=O)OC)C5(C)O1)CNC3=O (stereo not drawn) [CEP-1347]
[1]; 50 mg BID group, positive trend only
  asthma exacerbations: reduction of exacerbations
[1]; in particular with the 25 mg BID dose (FIG. 13)
  progression of airway remodeling: Positive effects
[2]; 10 mg BID, p 0.30
  PEFR Change from Baseline at Week 8, LS Mean: 0.01
[2]; 25 mg BID, p 1.0
  PEFR Change from Baseline at Week 8, LS Mean: 0.03
[2]; 50 mg BID, p 0.77
  PEFR Change from Baseline at Week 8, LS Mean: 0.04
[2]; 10, 25, 50 mg BID, 56 days, p=0.012
  daily morning PEFR change from baseline, longitudinal mixed effects model with CEP-1347 treatment component vs placebo only model: statistically significant improvement in the description of the data
[2]; Dose 20, BL % pred PEF 70
  Mean model predicted PEFR adjusted for baseline percent predicted PEFR, mean: 19.3
[2]; Dose 20, BL % pred PEF 80
  Mean model predicted PEFR adjusted for baseline percent predicted PEFR, mean: 16.6
[2]; Dose 20, BL % pred PEF 96
  Mean model predicted PEFR adjusted for baseline percent predicted PEFR, mean: 12.2
[2]; Dose 50, BL % pred PEF 70
  Mean model predicted PEFR adjusted for baseline percent predicted PEFR, mean: 38.6
[2]; Dose 50, BL % pred PEF 80
  Mean model predicted PEFR adjusted for baseline percent predicted PEFR, mean: 29.4
[2]; Dose 50, BL % pred PEF 96
  Mean model predicted PEFR adjusted for baseline percent predicted PEFR, mean: 14.8
[2]; Dose 100, BL % pred PEF 70
  Mean model predicted PEFR adjusted for baseline percent predicted PEFR, mean: 99.5
[2]; Dose 100, BL % pred PEF 80
  Mean model predicted PEFR adjusted for baseline percent predicted PEFR, mean: 70.0
[2]; Dose 100, BL % pred PEF 96
  Mean model predicted PEFR adjusted for baseline percent predicted PEFR, mean: 22.9
[3]; 10 mg BID, 4 Weeks
  MMP 9 Change from baseline, Mean: -89.2 pg/mL
  MMP 9 Change from baseline, Median: -79.4 pg/mL
  MMP 9 Observed Values, Mean: 723.4 pg/mL
  MMP 9 Observed Values, Median: 636.5 pg/mL
[3]; 10 mg BID, 8 Weeks
  MMP 9 Change from baseline, Mean: -108.5 pg/mL
  MMP 9 Change from baseline, Median: -87.6 pg/mL
  MMP 9 Observed Values, Mean: 687.4 pg/mL
  MMP 9 Observed Values, Median: 596.2 pg/mL
[3]; 10 mg BID, p 0.23
  MMP-9 Change from Baseline at Week 8, LS Mean: −98.4
[3]; 25 mg BID group relative to placebo, p=0.04
  MMP-9 change from baseline at week 8 (ANCOVA): statistically significant reduction
[3]; 25 mg BID, 4 Weeks
  MMP 9 Change from baseline, Mean: -104.2 pg/mL
  MMP 9 Change from baseline, Median: -104.8 pg/mL
  MMP 9 Observed Values, Mean: 660.4 pg/mL
  MMP 9 Observed Values, Median: 623.4 pg/mL
[3]; 25 mg BID, 8 Weeks
  MMP 9 Change from baseline, Mean: -147.6 pg/mL
  MMP 9 Change from baseline, Median: -85.0 pg/mL
  MMP 9 Observed Values, Mean: 633.5 pg/mL
  MMP 9 Observed Values, Median: 582.1 pg/mL
[3]; 25 mg BID, p 0.04
  MMP-9 Change from Baseline at Week 8, LS Mean: −144
[3]; 50 mg BID, 4 Weeks
  MMP 9 Change from baseline, Mean: -82.4 pg/mL
  MMP 9 Change from baseline, Median: -63.6 pg/mL
  MMP 9 Observed Values, Mean: 704.1 pg/mL
  MMP 9 Observed Values, Median: 704.2 pg/mL
[3]; 50 mg BID, 8 Weeks
  MMP 9 Change from baseline, Mean: -114.0 pg/mL
  MMP 9 Change from baseline, Median: -60.1 pg/mL
  MMP 9 Observed Values, Mean: 682.5 pg/mL
  MMP 9 Observed Values, Median: 655.1 pg/mL
[3]; 50 mg BID, p 0.19
  MMP-9 Change from Baseline at Week 8, LS Mean: −104
[3]; all CEP-1347 treatment groups relative to placebo, pooled groups vs placebo p=0.06
  MMP-9 change from baseline at week 8 (ANCOVA): greater reduction
[4]
  protection from LPS-induced death: provides protection
